Our source for the IC50, IC90 and Activity values is ChEMBL document CHEMBL3046546, “Synthesis and biological evaluation of a novel anti-malarial lead” (Med Chem Res, 2011).

Calls of active or inactive are those of the source. The rule behind the calls is not given here.

Common to all, as to type: functional, organism-based
One experiment has as its system Leishmania donovani. The experiment can be described thus: Antileishmanial activity against promastigotes of Leishmania donovani expressing firefly luciferase after 72 hr by luciferase assay.
Experiment [1] has as its system Plasmodium falciparum. The experiment can be described thus: Antimalarial activity against chloroquine-resistant Plasmodium falciparum W2 after 72 hr by […] assay. The following applies: W2, 72 h.
Experiment [2] has as its system Plasmodium falciparum. The experiment can be described thus: Antimalarial activity against chloroquine-sensitive Plasmodium falciparum D6 after 72 hr by […] assay. The following applies: D6, 72 h.
In the next experiment the test system is Aspergillus fumigatus. The experiment can be described thus: Antimicrobial activity against Aspergillus fumigatus.
Another experiment deals with Staphylococcus aureus. The experiment can be described thus: Antimicrobial activity against methicillin-resistant Staphylococcus aureus.
Experiment [3] concerns Mycobacterium intracellulare. The experiment can be described thus: Antimicrobial activity against Mycobacterium intracellulare.
The subject of the next experiment is Escherichia coli. The experiment can be described thus: Antimicrobial activity against Escherichia coli.
The test system of a further experiment is Cryptococcus neoformans. The experiment can be described thus: Antimicrobial activity against Cryptococcus neoformans.
The test system of another experiment is Candida albicans. The experiment can be described thus: Antimicrobial activity against Candida albicans.

In the experiment with Leishmania donovani, `CCc1ccc(Cc2cc(N)cc(N)c2)cc1` yielded an IC50 of 69 µM and an IC90 of 134 µM.
With `CCOC(=O)Cc1ccc(Cc2cn(Cc3ccccc3)cn2)cc1`, the values for the IC50 in the experiment on Plasmodium falciparum [1] and in the experiment on Plasmodium falciparum [2] were 6.3 µM and 8 µM, respectively.
In the case of `CCOC(=O)C(=O)Nc1cc(Cc2ccc(CC)cc2)cc(NC(=O)Cc2ccc(Cc3cn(Cc4ccccc4)cn3)cc2)c1`, the outcome (with Aspergillus fumigatus; in the experiment on Staphylococcus aureus; in experiment [3]; in the experiment with Escherichia coli; with Cryptococcus neoformans; in the experiment on Candida albicans) was inactive. The IC50 with Leishmania donovani stood at 41 µM; with Plasmodium falciparum [1], 5.5 µM; with Plasmodium falciparum [2], 6.5 µM.
The compound `C[C@@H]1[C@H](O)[C@@H](C)/C=C/C=C/C=C/C=C/C=C/C=C/C=C/[C@H](O[C@@H]2O[C@H](C)[C@@H](O)[C@H](N)[C@@H]2O)C[C@@H]2O[C@](O)(C[C@@H](O)C[C@@H](O)[C@H](O)CC[C@@H](O)C[C@@H](O)CC(=O)O[C@H]1C)C[C@H](O)[C@H]2C(=O)O` [AMPHOTERICIN B] gave an IC90 with Leishmania donovani of 2.5 µM.

Usually IC50 stands for the point on the concentration scale where inhibition reaches its midpoint. For orientation: IC90 means the concentration needed for an effect of 90%. Low readings indicate greater potency, high ones weaker potency.
